How the values were obtained:
[1] = test system: Cisplatin induced nephrotoxicity (blood urea nitrogen); experiment: BUN determination in Cisplatin-treated mice, sodium selenite time course (Table 1); assay type: in vivo, BDF1 mice
Experimental: (§1) BUN of the mice which have been administered a platinum complex increases due to the platinum poisoning in the kidney. […] The method of negating platinum toxicity of the present invention will be illustrated in more detail by way of Examples later.
(§2) Sodium selenite was administered to the peritoneal cavities of the mice at a dosage of 6.3 mg/kg. […] BUN of the mice was determined on the fourth day from the date of the administration. […] BUN of these control groups was also determined.
*^1 Average BUN value of mice which was determined on the fourth day
*^3 The figure in parentheses means the number of dead mice.

[2] = LD50 of Selenium Compounds; settings: mouse, in vivo, ip; intraperitoneal route, BDF1 male mice
Experimental: Our studies were carried out in BDF1 male mice weighing approximately 25 grams. All solutions were freshly were daily and given by the intraperitoneal route.

[3] = test system: Cisplatin induced nephrotoxicity (blood urea nitrogen); experiment: BUN determination in Cisplatin-treated mice, sodium selenite time course (Table 2); assay type: in vivo, BDF1 mice; settings: for number of dead mice: fourth day
Experimental: as §1, §2

[4] = test system: Cisplatin induced nephrotoxicity (blood urea nitrogen); experiment: BUN determination in Cisplatin-treated mice, sodium selenite dose series (Table 3); assay type: in vivo, BDF1 mice
Experimental: as §1
BUN of the mice was dertermined on the fourth day from the date of administration and on the eleventh day from the date of the administration. […] BUN of these control groups was also determined.

cadmium toxicity = settings: in vivo; cited from earlier work
[5] = test system: nephrotoxic effects of Cisplatin; settings: female rats; 750 mg/kg intraperitoneally or 100 mg/kg intravenously; cited from earlier work
[6] = sodium selenite 6.3 mg/kg i.p. 2 hours before Cisplatin 14 mg/kg i.p.
[7] = sodium selenite 6.3 mg/kg i.p. 4 hours before Cisplatin 14 mg/kg i.p.
[8] = sodium selenite 6.3 mg/kg i.p. simultaneously with Cisplatin 14 mg/kg i.p.
[9] = sodium selenite 6.3 mg/kg i.p. 3 hours before Cisplatin 14 mg/kg i.p.
[10] = sodium selenite 6.3 mg/kg i.p. 6 hours before Cisplatin 14 mg/kg i.p.
[11] = sodium selenite 1 mg/kg i.p. 2 hours before Cisplatin 14 mg/kg i.p.
[12] = sodium selenite 2 mg/kg i.p. 2 hours before Cisplatin 14 mg/kg i.p.
[13] = sodium selenite 4 mg/kg i.p. 2 hours before Cisplatin 14 mg/kg i.p.
[14] = sodium selenite 6 mg/kg i.p. 2 hours before Cisplatin 14 mg/kg i.p.
[15] = sodium selenite 8 mg/kg i.p. 2 hours before Cisplatin 14 mg/kg i.p.

SMILES: O=[Se](O)O [Sodium selenite, sodium selenite]
- number of dead mice ([1]; fourth day, sodium selenite 6.3 mg/kg i.p. 2 hours before Cisplatin 14 mg/kg i.p.): 2
- BUN (≥30) on the fourth day, mice ([1]; sodium selenite 6.3 mg/kg i.p. 1 hour after Cisplatin 14 mg/kg i.p.): 5/5
- BUN (≥30) on the fourth day, mice [1, 6]: 1/3
- BUN (≥30) on the fourth day, mice [1, 7]: 4/5
- BUN (≥30) on the fourth day, mice [1, 8]: 2/5
- BUN (≥30) on the fourth day, mice ([1]; sodium selenite 6.3 mg/kg only, i.p.): 0/5
- LD50 [2]: 3.25 to 3.5 mg/kg
- number of dead mice [3, 9]: 1
- number of dead mice [3, 7]: 1
- number of dead mice [3, 10]: 1
- number of dead mice [3, 8]: 1
- BUN (≥30) on the fourth day, mice ([3]; sodium selenite 6.3 mg/kg i.p. 1 hour before Cisplatin 14 mg/kg i.p.): 3/5
- BUN (≥30) on the fourth day, mice [3, 6]: 1/5
- BUN (≥30) on the fourth day, mice [3, 9]: 1/4
- BUN (≥30) on the fourth day, mice [3, 7]: 2/4
- BUN (≥30) on the fourth day, mice [3, 10]: 2/4
- BUN (≥30) on the fourth day, mice [3, 8]: 2/4
- number of dead mice ([4]; eleventh day, sodium selenite 2 mg/kg i.p. 2 hours before Cisplatin 14 mg/kg i.p.): 1
- number of dead mice ([4]; eleventh day, sodium selenite 4 mg/kg i.p. 2 hours before Cisplatin 14 mg/kg i.p.): 2
- number of dead mice ([4]; eleventh day, sodium selenite 6 mg/kg i.p. 2 hours before Cisplatin 14 mg/kg i.p.): 1
- number of dead mice ([4]; eleventh day, sodium selenite 8 mg/kg i.p. 2 hours before Cisplatin 14 mg/kg i.p.): 1
- number of dead mice ([4]; fourth day, sodium selenite 4 mg/kg i.p. 2 hours before Cisplatin 14 mg/kg i.p.): 1
- number of dead mice ([4]; fourth day, sodium selenite 8 mg/kg i.p. 2 hours before Cisplatin 14 mg/kg i.p.): 1
- BUN (≥30) on the eleventh day, mice [4, 11]: 1/5
- BUN (≥30) on the fourth day, mice [4, 11]: 3/5
- BUN (≥30) on the eleventh day, mice [4, 12]: 0/4
- BUN (≥30) on the fourth day, mice [4, 12]: 1/5
- BUN (≥30) on the eleventh day, mice [4, 13]: 0/3
- BUN (≥30) on the fourth day, mice [4, 13]: 1/4
- BUN (≥30) on the eleventh day, mice [4, 14]: 0/4
- BUN (≥30) on the fourth day, mice [4, 14]: 1/5
- BUN (≥30) on the eleventh day, mice [4, 15]: 0/4
- BUN (≥30) on the fourth day, mice [4, 15]: 1/4

SMILES: [Se] [selenium]
- cadmium induced testicular damage (cadmium toxicity): prevents

SMILES: N[C@@H](C[Se][Se]C[C@H](N)C(=O)O)C(=O)O [selenocystine]
- LD50 [2]: 4 mg/kg

SMILES: CCN(CC)C(=S)[S-].[Na+] [sodium diethyldithiocarbamate]
- nephrotoxic effects of Cisplatin [5]: effectively inhibited

SMILES: O=[Se](=O)(O)O [sodium selenate]
- LD50 [2]: 5.25 to 5.75 mg/kg

Reference: patent US4536571A, “Selenium-containing platinum compound” (priority 1983, dated 1985)
